Laboratory results from US12522630B2, “MRNA cap analog and uses thereof” (HANMI FINE CHEMICAL CO., LTD., priority 2022, dated 2026).

Key:
T7 RNA polymerase = biological target: T1, T7 RNA polymerase (Escherichia phage T7, UniProt P00573); assay: In vitro transcription of luciferase mRNA capped by co-transcriptional capping; format: biochemical; settings: 4 mM cap analog, 37° C., 1 to 4 hours; compared with ^7mG(3′OMe)pppA(2′OMe)pG (set as 100%); FIG. 1
T1 construct: purchased New England Biolab #dy1670
T1 sequence (P00573 whole entry): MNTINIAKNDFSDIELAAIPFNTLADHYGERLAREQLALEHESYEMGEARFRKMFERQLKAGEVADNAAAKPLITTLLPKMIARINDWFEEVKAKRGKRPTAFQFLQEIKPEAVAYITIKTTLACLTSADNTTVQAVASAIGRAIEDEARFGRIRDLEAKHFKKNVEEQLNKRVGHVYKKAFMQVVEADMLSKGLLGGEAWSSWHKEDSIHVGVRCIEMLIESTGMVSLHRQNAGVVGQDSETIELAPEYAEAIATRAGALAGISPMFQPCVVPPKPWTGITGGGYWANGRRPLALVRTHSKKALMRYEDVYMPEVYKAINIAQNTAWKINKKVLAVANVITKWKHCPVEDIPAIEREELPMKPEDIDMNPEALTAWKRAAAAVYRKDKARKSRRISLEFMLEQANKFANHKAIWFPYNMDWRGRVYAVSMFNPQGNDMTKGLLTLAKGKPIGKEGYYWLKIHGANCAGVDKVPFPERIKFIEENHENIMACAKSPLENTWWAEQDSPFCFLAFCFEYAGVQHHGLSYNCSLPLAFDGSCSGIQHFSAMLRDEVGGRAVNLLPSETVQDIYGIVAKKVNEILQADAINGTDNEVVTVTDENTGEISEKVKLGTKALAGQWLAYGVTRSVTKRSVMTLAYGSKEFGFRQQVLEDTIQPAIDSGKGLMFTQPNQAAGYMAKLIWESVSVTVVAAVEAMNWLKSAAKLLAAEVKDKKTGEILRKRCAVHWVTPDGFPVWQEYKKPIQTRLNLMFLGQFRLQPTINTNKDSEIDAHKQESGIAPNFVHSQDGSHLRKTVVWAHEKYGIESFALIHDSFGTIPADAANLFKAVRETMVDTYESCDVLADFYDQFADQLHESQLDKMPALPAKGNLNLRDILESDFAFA
Description: For mRNA synthesis reaction using the compound of Example 8 as a cap analog, a transcription mixture including a 100 ng/ml firefly luciferase DNA transcription template (including poly A 101), 5 mM ATP, CTP, GTP, and 1-N-methyl-pseudouridine 5′-triphosphate (me^1øTP), 4 mM compound of Example 8, 10 U/ml T7 RNA polymerase (New England Biolab #dy1670), 1 U/ml RNase inhibiting protein, 0.01 U/ml inorganic pyrophosphatase, 40 mM Tris·HCl (pH 8.0), 20 mM magnesium acetate, 1 mM spermidine, and 10 mM DTT was prepared. As a comparative example, a transcription mixture was prepared by adding the TriLink's trinucleotide cap analog ^m7G(3′Ome)pppA(2′oMe)pG, instead of the compound of Example 8, under the same conditions. Each of the prepared transcription mixtures was reacted at 37° C. for 1 to 4 hours. […] Concentration of the purified mRNA was measured by using a Nanodrop spectrophotometer of Thermo Scientific, and a total amount of mRNA was calculated by multiplying the concentration and reaction volume. Then, in order to derive a mRNA in vitro transcription (IVT) yield, the total amount of mRNA synthesized using each different cap analog was divided by the input L-DNA content to quantify the IVT yield value according to the cap analog. […] This may be calculated by [Equation 1] below. […]

HEK293T cells = assay: Translation of capped luciferase mRNA in HEK293T cell; format: cell-based, Human; settings: compared with mRNA capped with ^7mG(3′OMe)pppA(2′OMe)pG
Description: Translation activity of luciferase mRNAs respectively prepared by in vitro transcription of the compound of Example 8 or ^7mG(3′OMe)pppA(2′OMe)pG in Experimental Example 1 was evaluated in Human embryonic kidney 293T cell lines (HEK293T). HEK293T cells were incubated in DMEM supplemented with 10% FBS and 1% penicillin/streptomycin at 37° C. under an atmosphere of 5% CO2. HEK293T cells were plated in a 6-well plate at a density of 1×10^5 cells/well. […] The cells were harvested after 1, 4, 6, 12, 24, and 48 hours from the transfection and luciferase activity was measured by using a Dual-Glo® Luciferase Assay kit (Promega catalog #E2910) according to manufacturer's recommendations: after removing the medium of the transfected cells, 75 μl of phosphate-buffered saline (PBS) was added thereto. Subsequently, 75 μl of a Dual-Glo® reagent was further added thereto, followed by mixing and incubation for 10 minutes, and then firefly luciferase luminescence was measured by using a luminometer (Perkin Elmer). Then, 75 μl of a Dual-Glo® Stop&Glo® reagent was further added thereto, followed by incubation for 10 minutes, and then Renilla luciferase luminescence was measured. A ratio of firefly luciferase luminous value to a Renilla luciferase luminous value, a control was calculated, and then luciferase activity per hour relative […] (RLU) was normalized, which is shown in FIG. 2. […]

Compound: COC1[C@@H](OP(=O)(O)OC[C@H]2O[C@@H](n3cnc4c(=O)[nH]c(N)nc43)C(O)[C@H]2O)[C@@H](COP(=O)(O)OP(=O)(O)OP(=O)(O)OC[C@H]2O[C@@H](n3c[n+](C)c4c(=O)[nH]c(N)nc43)C(O)[C@H]2OS(C)(=O)=O)O[C@H]1n1cnc2c(N)ncnc21 (stereo partly drawn) [Example 8, ^7mG(3′OMs)pppA(2′OMe)pG]
- IVT yield of luciferase mRNA with the compound as cap analog (T7 RNA polymerase): almost same
- total protein expression level (AUC of luciferase activity) of mRNA capped with the compound (HEK293T cells; 1 hour to 48 hours after transfection, FIG. 3): higher total protein expression level
- luciferase activity of mRNA capped with the compound (HEK293T cells; from 6 hours to 12 hours after transfection, FIG. 2): far higher luciferase activity
